{
  "source": "paper PMC9313812",
  "about": "“The Pseudo‐Natural Product Rhonin Targets RHOGDI” (Angewandte Chemie (International Ed. in English), 2022)",
  "key": {"RHO GTPases": {"system": "RHO GTPases", "experiment": "Immunoblotting of total cellular RHO GTPase levels", "type": "cell-based", "settings": "10 μM, 24 h"}, "HEK293T cells": {"system": "HEK293T cells", "experiment": "Cell fractionation: distribution of RHO GTPases", "type": "cell-based", "settings": "10 μM", "description": "centrifugation for 20 min in 20000 x g, supernatants were collected and loaded on a Ni-NTA column (Qiagen, Hilden, Germany). The protein was eluted by passing a buffer containing 300 mM imidazole into the Ni-NTA column. The eluted solution was further purified on an analytical Superdex 75 column (10/300 GL, GE-Healthcare, Uppsala, Sweden) using 20 mM HEPES-NaOH pH 7.4, 150 mM NaCl, 3 mM DTT, 5 mM MgCl2 and 0.5% (w/v) Na-cholate as buffer system. Non-prenylated RAC1 and human RHOGDI1 were prepared from E. coli as a GST recombinant protein as described previously.6\nFor expression of GST-PDEδ, E. coli RosettaTM2 cells transformed with PDE6D expression plasmid (pGex4T5) were inoculated in TB medium containing 100 μg/ml ampicillin and 30 μg/ml chloramphenicol to a total volume of 10 L. The protein expression in E. coli was induced with 0.2 mM IPTG at OD600 = 1.33. Cells were cultivated overnight at 18 ° C with shaking.\nCells then were pelleted by centrifugation at 4000xg for 20 min at 4 ° C and stored at -20 ° C. […]\nNIH/3T3 cells were seeded in a 96 plate (10,000 cell per well/ plate name: Essen Bioscience NO 4379). […] Cell migration was monitored using IncuCyte ZOOM for a period of 48 h. The images were analyzed by the Incucyte Scratch Wound Analysis Software. […]"}},
  "data": [
    {"smiles": "COC(=O)C1(C(CC(=O)c2cccnc2)c2ccccc2)N=C(c2ccc(Br)cc2)C2C(=O)N(C)C(=O)C21", "note": "(centres unmarked) [7l]", "values": [
      {"measurement": "Total levels of the three RHO GTPases (in words)", "setting": "RHO GTPases", "value": "did not alter the total levels"},
      {"measurement": "Subcellular localization of membrane-bound RHO GTPases (in words)", "setting": "HEK293T cells", "value": "from the plasma membrane to the endoplasmic reticulum (ER) membrane"}
    ]}
  ]
}
